Results: article PMC12367827, “Prioritisation of co-formulants and plant protection products for non-dietary risk assessment using NAMs” (Archives of Toxicology, 2025)

Tests used:
[1] = molecular target: CYP2C19 (Homo sapiens, UniProt P33261); test: P450-Glo luminescence inhibition assay
[2] = molecular target: T1, CYP1A2 (Homo sapiens, UniProt P05177); test: P450-Glo luminescence turnover; type: biochemical; details: NADPH regeneration system; potassium phosphate buffer; […] °C; luminogenic substrate
T1 construct: recombinant human enzyme in membrane preparation (Promega P450-Glo CYP1A2 Screening System)
T1 sequence (P05177 2-516): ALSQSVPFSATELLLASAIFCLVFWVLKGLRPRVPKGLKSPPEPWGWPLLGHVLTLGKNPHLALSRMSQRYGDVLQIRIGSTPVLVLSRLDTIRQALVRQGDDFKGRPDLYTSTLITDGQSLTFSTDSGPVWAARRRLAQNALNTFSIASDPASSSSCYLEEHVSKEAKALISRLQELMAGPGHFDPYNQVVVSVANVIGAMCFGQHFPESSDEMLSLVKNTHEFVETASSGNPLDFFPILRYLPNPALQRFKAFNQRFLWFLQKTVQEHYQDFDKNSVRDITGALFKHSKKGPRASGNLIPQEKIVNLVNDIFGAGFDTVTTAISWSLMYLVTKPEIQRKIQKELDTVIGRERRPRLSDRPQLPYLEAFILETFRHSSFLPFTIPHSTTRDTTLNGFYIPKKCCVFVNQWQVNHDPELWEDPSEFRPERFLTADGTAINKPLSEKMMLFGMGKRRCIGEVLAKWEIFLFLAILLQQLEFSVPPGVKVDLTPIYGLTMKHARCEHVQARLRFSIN

CYP2C19, sequence (P33261 whole entry): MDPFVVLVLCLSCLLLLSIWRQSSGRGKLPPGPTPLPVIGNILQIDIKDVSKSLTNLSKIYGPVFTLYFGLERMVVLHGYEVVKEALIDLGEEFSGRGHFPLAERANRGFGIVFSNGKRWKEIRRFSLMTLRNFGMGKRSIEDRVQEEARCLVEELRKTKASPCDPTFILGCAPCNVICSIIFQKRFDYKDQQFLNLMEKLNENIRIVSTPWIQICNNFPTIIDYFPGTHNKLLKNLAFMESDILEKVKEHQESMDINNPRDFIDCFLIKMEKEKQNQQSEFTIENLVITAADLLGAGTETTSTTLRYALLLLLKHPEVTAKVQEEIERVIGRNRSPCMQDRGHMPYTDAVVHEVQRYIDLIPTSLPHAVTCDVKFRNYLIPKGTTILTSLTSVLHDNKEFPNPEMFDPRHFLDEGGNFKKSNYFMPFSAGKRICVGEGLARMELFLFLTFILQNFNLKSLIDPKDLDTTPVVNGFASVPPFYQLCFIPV

IC50 [1]	SMILES	P450-Glo luminescence turnover [2]
4.05 µM	CCCCCCCCCC(=O)N(C)C [NDA, N,N-dimethyldecanamide]	–
–	COc1ccc2nc(C3=NC(C(=O)O)CS3)sc2c1 (centres unmarked) [Luciferin-ME]	Luciferin-ME (CYP1A2) as luminogenic substrate
